PubChem BioAssay AID1845200 (Molecular Pharmacology Branch, DTP, NCI, 2023)
“And” between values parts separate entries of the source, which are not always exact repeats. Equal values may be shown once.

Test system: ASPS-1 complex tumor spheroids, viability
Test: Anticancer human tumor ASPS-1 cell line growth inhibition;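 note: spheroids exposed to agents for 7 days after 3 days of growth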;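 for viability, T/C: 100% = DMSO vehicle treated spheroids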
Details: for viability, T/C: stronger effect = lower value
Method in brief: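 Complex tumor spheroids combined malignant cells with endothelial cells and mesenchymal stem cells. DNA-damaging drugs and DNA repair inhibitors were tested alone and in combination, at half-log dilutions down from clinical Cmax (top 10 microM if Cmax unknown), 0.25% DMSO final.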

[1] = curve of first compound, second compound 0.003 µM
[2] = second compound 0.003 µM, first compound 0.0316 µM
[3] = second compound 0.003 µM, first compound 0.1 µM
[4] = second compound 0.003 µM, first compound 0.316 µM
[5] = second compound 0.003 µM, first compound 1 µM
[6] = second compound 0.003 µM, first compound 3.16 µM
[7] = second compound 0.003 µM, first compound 10 µM
[8] = curve of first compound, second compound 0.00949 µM
[9] = curve of first compound, second compound 0.03 µM
[10] = curve of first compound, second compound 0.0949 µM
[11] = curve of first compound, second compound 0.3 µM
[12] = second compound 0.00949 µM, first compound 0.0316 µM
[13] = second compound 0.00949 µM, first compound 0.1 µM
[14] = second compound 0.00949 µM, first compound 0.316 µM
[15] = second compound 0.00949 µM, first compound 1 µM
[16] = second compound 0.00949 µM, first compound 3.16 µM
[17] = second compound 0.00949 µM, first compound 10 µM
[18] = second compound 0.03 µM, first compound 0.0316 µM
[19] = second compound 0.03 µM, first compound 0.1 µM
[20] = second compound 0.03 µM, first compound 0.316 µM
[21] = second compound 0.03 µM, first compound 1 µM
[22] = second compound 0.03 µM, first compound 3.16 µM
[23] = second compound 0.03 µM, first compound 10 µM
[24] = second compound 0.0949 µM, first compound 0.0316 µM
[25] = second compound 0.0949 µM, first compound 0.1 µM
[26] = second compound 0.0949 µM, first compound 0.316 µM
[27] = second compound 0.0949 µM, first compound 1 µM
[28] = second compound 0.0949 µM, first compound 3.16 µM
[29] = second compound 0.0949 µM, first compound 10 µM
[30] = second compound 0.3 µM, first compound 0.0316 µM
[31] = second compound 0.3 µM, first compound 0.1 µM
[32] = second compound 0.3 µM, first compound 0.316 µM
[33] = second compound 0.3 µM, first compound 1 µM
[34] = second compound 0.3 µM, first compound 3.16 µM
[35] = second compound 0.3 µM, first compound 10 µM

CC(C)n1c(=O)n(C)c2cnc3cc(F)c(-c4ccc(OCCCN5CCCCC5)nc4)cc3c21 + COc1cc2c(cc1O)CCNC21CSC2c3c(OC(C)=O)c(C)c4c(c3C(COC1=O)N1C(O)C3Cc5cc(C)c(OC)c(O)c5C(C21)N3C)OCO4
IC50 (curve of first compound, second compound 30 pM): > 10 µM
IC50 (curve of first compound, second compound 94.9 pM): > 10 µM
IC50 (curve of first compound, second compound 0.0003 µM): 0.868 µM
IC50 (curve of first compound, second compound 0.000949 µM): < 0.0316 µM
IC50 [1]: < 0.0316 µM
viability, T/C (second compound 30 pM, first compound 0.0316 µM): 105%
viability, T/C (second compound 30 pM, first compound 0.1 µM): 99.5%
viability, T/C (second compound 30 pM, first compound 0.316 µM): 98.2%
viability, T/C (second compound 30 pM, first compound 1 µM): 92.5%
viability, T/C (second compound 30 pM, first compound 3.16 µM): 83.7%
viability, T/C (second compound 30 pM, first compound 10 µM): 50%
viability, T/C (second compound 94.9 pM, first compound 0.0316 µM): 96.1%
viability, T/C (second compound 94.9 pM, first compound 0.1 µM): 84%
viability, T/C (second compound 94.9 pM, first compound 0.316 µM): 78%
viability, T/C (second compound 94.9 pM, first compound 1 µM): 72.7%
viability, T/C (second compound 94.9 pM, first compound 3.16 µM): 64.4%
viability, T/C (second compound 94.9 pM, first compound 10 µM): 48.7%
viability, T/C (second compound 0.0003 µM, first compound 0.0316 µM): 68.7%
viability, T/C (second compound 0.0003 µM, first compound 0.1 µM): 62.7%
viability, T/C (second compound 0.0003 µM, first compound 0.316 µM): 54.7%
viability, T/C (second compound 0.0003 µM, first compound 1 µM): 50.4%
viability, T/C (second compound 0.0003 µM, first compound 3.16 µM): 41.6%
viability, T/C (second compound 0.0003 µM, first compound 10 µM): 31.1%
viability, T/C (second compound 0.000949 µM, first compound 0.0316 µM): 48.7%
viability, T/C (second compound 0.000949 µM, first compound 0.1 µM): 45.6%
viability, T/C (second compound 0.000949 µM, first compound 0.316 µM): 35.3%
viability, T/C (second compound 0.000949 µM, first compound 1 µM): 25.1%
viability, T/C (second compound 0.000949 µM, first compound 3.16 µM): 19.9%
viability, T/C (second compound 0.000949 µM, first compound 10 µM): 18.1%
viability, T/C [2]: 15%
viability, T/C [3]: 5.65%
viability, T/C [4]: 1.44%
viability, T/C [5]: 0.39%
viability, T/C [6]: 0.32%
viability, T/C [7]: 0.46%

O=C(c1cc(Cc2n[nH]c(=O)c3ccccc23)ccc1F)N1CCN(C(=O)C2CC2)CC1
viability, T/C (compound 0.0949 µM): 97.9% and 107% and 106%
viability, T/C (compound 0.3 µM): 95% and 115% and 111%
viability, T/C (compound 0.949 µM): 95.6% and 107% and 108%
viability, T/C (compound 3 µM): 101% and 108% and 102%
viability, T/C (compound 9.49 µM): 101% and 111% and 103%
viability, T/C (compound 30 µM): 89.2% and 97.1% and 60.3%
IC50 (curve of compound): > 30 µM

Cc1cc(C)c(CNC(=O)c2cc(-c3ccc(CN4CCOCC4)cc3)cc3c2cnn3C2CCCC2)c(=O)[nH]1 + CC[C@@]1(O)C(=O)OCc2c1cc1n(c2=O)Cc2cc3c(CN(C)C)c(O)ccc3nc2-1
IC50 [1]: > 10 µM
IC50 [8]: > 10 µM
IC50 [9]: > 10 µM
IC50 [10]: 0.777 µM
IC50 [11]: < 0.0316 µM
viability, T/C [2]: 100%
viability, T/C [3]: 106%
viability, T/C [4]: 94.2%
viability, T/C [5]: 93.7%
viability, T/C [6]: 85.2%
viability, T/C [7]: 81.2%
viability, T/C [12]: 107%
viability, T/C [13]: 114%
viability, T/C [14]: 107%
viability, T/C [15]: 95.2%
viability, T/C [16]: 87.2%
viability, T/C [17]: 77.8%
viability, T/C [18]: 95.8%
viability, T/C [19]: 98.7%
viability, T/C [20]: 89.9%
viability, T/C [21]: 79.9%
viability, T/C [22]: 66%
viability, T/C [23]: 74%
viability, T/C [24]: 59%
viability, T/C [25]: 55.3%
viability, T/C [26]: 52.3%
viability, T/C [27]: 46.2%
viability, T/C [28]: 46.5%
viability, T/C [29]: 52.8%
viability, T/C [30]: 49.5%
viability, T/C [31]: 47%
viability, T/C [32]: 44.4%
viability, T/C [33]: 45.6%
viability, T/C [34]: 46.4%
viability, T/C [35]: 56.9%

Cc1sc2c(c1C)C(c1ccc(Cl)cc1)=NC(CC(=O)Nc1ccc(O)cc1)c1nnc(C)n1-2 (configuration not stated) + Cn1nnc2c(C(N)=O)ncn2c1=O
IC50 (curve of first compound, second compound 1 µM): > 3 µM
IC50 (curve of first compound, second compound 3.16 µM): > 3 µM
IC50 (curve of first compound, second compound 10 µM): > 3 µM
IC50 (curve of first compound, second compound 31.6 µM): > 3 µM
IC50 (curve of first compound, second compound 100 µM): > 3 µM
viability, T/C (second compound 1 µM, first compound 0.00949 µM): 102%
viability, T/C (second compound 1 µM, first compound 0.03 µM): 110%
viability, T/C (second compound 1 µM, first compound 0.0949 µM): 114%
viability, T/C (second compound 1 µM, first compound 0.3 µM): 99.4%
viability, T/C (second compound 1 µM, first compound 0.949 µM): 91.6%
viability, T/C (second compound 1 µM, first compound 3 µM): 88.6%
viability, T/C (second compound 3.16 µM, first compound 0.00949 µM): 101%
viability, T/C (second compound 3.16 µM, first compound 0.03 µM): 108%
viability, T/C (second compound 3.16 µM, first compound 0.0949 µM): 111%
viability, T/C (second compound 3.16 µM, first compound 0.3 µM): 96.7%
viability, T/C (second compound 3.16 µM, first compound 0.949 µM): 94.9%
viability, T/C (second compound 3.16 µM, first compound 3 µM): 89.9%
viability, T/C (second compound 10 µM, first compound 0.00949 µM): 88.7%
viability, T/C (second compound 10 µM, first compound 0.03 µM): 99.6%
viability, T/C (second compound 10 µM, first compound 0.0949 µM): 99.1%
viability, T/C (second compound 10 µM, first compound 0.3 µM): 100%
viability, T/C (second compound 10 µM, first compound 0.949 µM): 97.5%
viability, T/C (second compound 10 µM, first compound 3 µM): 83.9%
viability, T/C (second compound 31.6 µM, first compound 0.00949 µM): 94.6%
viability, T/C (second compound 31.6 µM, first compound 0.03 µM): 92.3%
viability, T/C (second compound 31.6 µM, first compound 0.0949 µM): 103%
viability, T/C (second compound 31.6 µM, first compound 0.3 µM): 95.6%
viability, T/C (second compound 31.6 µM, first compound 0.949 µM): 83.9%
viability, T/C (second compound 31.6 µM, first compound 3 µM): 80.3%
viability, T/C (second compound 100 µM, first compound 0.00949 µM): 75.9%
viability, T/C (second compound 100 µM, first compound 0.03 µM): 82.6%
viability, T/C (second compound 100 µM, first compound 0.0949 µM): 84.8%
viability, T/C (second compound 100 µM, first compound 0.3 µM): 79%
viability, T/C (second compound 100 µM, first compound 0.949 µM): 70.7%
viability, T/C (second compound 100 µM, first compound 3 µM): 61.2%

COc1cc(C)[nH]c(=O)c1CN1CCc2c(Cl)cc(C(OC)C3COC3)c(Cl)c2C1=O (configuration not stated) + CC[C@@]1(O)C(=O)OCc2c1cc1n(c2=O)Cc2cc3c(CN(C)C)c(O)ccc3nc2-1
IC50 [1]: > 10 µM
IC50 [8]: > 10 µM
IC50 [9]: > 10 µM
IC50 [10]: > 10 µM
IC50 [11]: > 10 µM
viability, T/C [2]: 107%
viability, T/C [3]: 111%
viability, T/C [4]: 99.3%
viability, T/C [5]: 98.7%
viability, T/C [6]: 99.9%
viability, T/C [7]: 101%
viability, T/C [12]: 112%
viability, T/C [13]: 110%
viability, T/C [14]: 107%
viability, T/C [15]: 98.9%
viability, T/C [16]: 98.9%
viability, T/C [17]: 98.8%
viability, T/C [18]: 84.6%
viability, T/C [19]: 89.1%
viability, T/C [20]: 88.8%
viability, T/C [21]: 87.2%
viability, T/C [22]: 91.3%
viability, T/C [23]: 82.8%
viability, T/C [24]: 61.8%
viability, T/C [25]: 61.7%
viability, T/C [26]: 60.2%
viability, T/C [27]: 62.7%
viability, T/C [28]: 58.4%
viability, T/C [29]: 59.3%
viability, T/C [30]: 69.7%
viability, T/C [31]: 64.8%
viability, T/C [32]: 69.2%
viability, T/C [33]: 64.9%
viability, T/C [34]: 64.2%
viability, T/C [35]: 65.7%
